# System: Key Broadleaf Weed and Crop Species
# Assay: Post-emergent Test II herbicidal activity (Table 5)
# Format: in vivo
# Conditions: post-emergence, 336 h; ABUTH: velvetleaf (Abutilon theophrasti); 70 g ai/ha; post-emergent; 14 days after application; read-out: Visual Growth Reduction (%) 14 Days After Application ABUTH
# In short: (§1)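 Post-emergence foliar spray, 187 L/ha, track sprayer at 43 cm above canopy. Carrier: acetone/water/IPA/DMSO/Atplus 411F/Triton X-155. Plants at 1st–2nd true leaf; subirrigated afterwards; % injury scored visually at 14 d.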
row,Structure (SMILES),pest or weed control at 70 g/ha
1,"C=Cc1c(C(=O)OC)nc(-c2ccc(Br)cc2)c(F)c1N [Compound 57, methyl 4-amino-6-(4-bromophenyl)-5-fluoro-3-vinylpicolinate]",85 to 94%

# Same assay, conditions: post-emergence, 336 h; ABUTH: velvetleaf (Abutilon theophrasti); 140 g ai/ha; post-emergent; 14 days after application; read-out: Visual Growth Reduction (%) 14 Days After Application ABUTH
row,Structure (SMILES),pest or weed control at 140 g/ha
1,"C=Cc1c(C(=O)OC)nc(-c2ccc(Br)cc2)c(F)c1N [Compound 57, methyl 4-amino-6-(4-bromophenyl)-5-fluoro-3-vinylpicolinate]",85 to 94%

# Same assay, conditions: post-emergence, 336 h; AMARE: redroot pigweed (Amaranthus retroflexus); 70 g ai/ha; post-emergent; 14 days after application; read-out: Visual Growth Reduction (%) 14 Days After Application AMARE
row,Structure (SMILES),pest or weed control at 70 g/ha
1,"C=Cc1c(C(=O)OC)nc(-c2ccc(Br)cc2)c(F)c1N [Compound 57, methyl 4-amino-6-(4-bromophenyl)-5-fluoro-3-vinylpicolinate]",85 to 94%

# Same assay, conditions: post-emergence, 336 h; AMARE: redroot pigweed (Amaranthus retroflexus); 140 g ai/ha; post-emergent; 14 days after application; read-out: Visual Growth Reduction (%) 14 Days After Application AMARE
row,Structure (SMILES),pest or weed control at 140 g/ha
1,"C=Cc1c(C(=O)OC)nc(-c2ccc(Br)cc2)c(F)c1N [Compound 57, methyl 4-amino-6-(4-bromophenyl)-5-fluoro-3-vinylpicolinate]",95 to 100%

# Same assay, conditions: post-emergence, 336 h; BRSNN: oilseed-rape, canola (Brassica napus); 70 g ai/ha; post-emergent; 14 days after application; read-out: Visual Growth Reduction (%) 14 Days After Application BRSNN
row,Structure (SMILES),pest or weed control at 70 g/ha
1,"C=Cc1c(C(=O)OC)nc(-c2ccc(Br)cc2)c(F)c1N [Compound 57, methyl 4-amino-6-(4-bromophenyl)-5-fluoro-3-vinylpicolinate]",60 to 74%

# Same assay, conditions: post-emergence, 336 h; BRSNN: oilseed-rape, canola (Brassica napus); 140 g ai/ha; post-emergent; 14 days after application; read-out: Visual Growth Reduction (%) 14 Days After Application BRSNN
row,Structure (SMILES),pest or weed control at 140 g/ha
1,"C=Cc1c(C(=O)OC)nc(-c2ccc(Br)cc2)c(F)c1N [Compound 57, methyl 4-amino-6-(4-bromophenyl)-5-fluoro-3-vinylpicolinate]",75 to 84%

# Same assay, conditions: post-emergence, 336 h; CHEAL: lambsquarters (Chenopodium album); 70 g ai/ha; post-emergent; 14 days after application; read-out: Visual Growth Reduction (%) 14 Days After Application CHEAL
row,Structure (SMILES),pest or weed control at 70 g/ha
1,"C=Cc1c(C(=O)OC)nc(-c2ccc(Br)cc2)c(F)c1N [Compound 57, methyl 4-amino-6-(4-bromophenyl)-5-fluoro-3-vinylpicolinate]",85 to 94%

# Same assay, conditions: post-emergence, 336 h; CHEAL: lambsquarters (Chenopodium album); 140 g ai/ha; post-emergent; 14 days after application; read-out: Visual Growth Reduction (%) 14 Days After Application CHEAL
row,Structure (SMILES),pest or weed control at 140 g/ha
1,"C=Cc1c(C(=O)OC)nc(-c2ccc(Br)cc2)c(F)c1N [Compound 57, methyl 4-amino-6-(4-bromophenyl)-5-fluoro-3-vinylpicolinate]",85 to 94%

# Same assay, conditions: post-emergence, 336 h; EPHHL: wild poinsettia (Euphorbia heterophylla); 70 g ai/ha; post-emergent; 14 days after application; read-out: Visual Growth Reduction (%) 14 Days After Application EPHHL
row,Structure (SMILES),pest or weed control at 70 g/ha
1,"C=Cc1c(C(=O)OC)nc(-c2ccc(Br)cc2)c(F)c1N [Compound 57, methyl 4-amino-6-(4-bromophenyl)-5-fluoro-3-vinylpicolinate]",85 to 94%

# Same assay, conditions: post-emergence, 336 h; EPHHL: wild poinsettia (Euphorbia heterophylla); 140 g ai/ha; post-emergent; 14 days after application; read-out: Visual Growth Reduction (%) 14 Days After Application EPHHL
row,Structure (SMILES),pest or weed control at 140 g/ha
1,"C=Cc1c(C(=O)OC)nc(-c2ccc(Br)cc2)c(F)c1N [Compound 57, methyl 4-amino-6-(4-bromophenyl)-5-fluoro-3-vinylpicolinate]",85 to 94%

# Same assay, conditions: post-emergence, 336 h; HELAN: sunflower (Helianthus annuus); 70 g ai/ha; post-emergent; 14 days after application; read-out: Visual Growth Reduction (%) 14 Days After Application HELAN
row,Structure (SMILES),pest or weed control at 70 g/ha
1,"C=Cc1c(C(=O)OC)nc(-c2ccc(Br)cc2)c(F)c1N [Compound 57, methyl 4-amino-6-(4-bromophenyl)-5-fluoro-3-vinylpicolinate]",85 to 94%

# Same assay, conditions: post-emergence, 336 h; HELAN: sunflower (Helianthus annuus); 140 g ai/ha; post-emergent; 14 days after application; read-out: Visual Growth Reduction (%) 14 Days After Application HELAN
row,Structure (SMILES),pest or weed control at 140 g/ha
1,"C=Cc1c(C(=O)OC)nc(-c2ccc(Br)cc2)c(F)c1N [Compound 57, methyl 4-amino-6-(4-bromophenyl)-5-fluoro-3-vinylpicolinate]",85 to 94%

# Same assay, conditions: post-emergence, 336 h; VIOTR: wild pansy (Viola tricolor); 70 g ai/ha; post-emergent; 14 days after application; read-out: Visual Growth Reduction (%) 14 Days After Application VIOTR
row,Structure (SMILES),pest or weed control at 70 g/ha
1,"C=Cc1c(C(=O)OC)nc(-c2ccc(Br)cc2)c(F)c1N [Compound 57, methyl 4-amino-6-(4-bromophenyl)-5-fluoro-3-vinylpicolinate]",0 to 29%

# Same assay, conditions: post-emergence, 336 h; VIOTR: wild pansy (Viola tricolor); 140 g ai/ha; post-emergent; 14 days after application; read-out: Visual Growth Reduction (%) 14 Days After Application VIOTR
row,Structure (SMILES),pest or weed control at 140 g/ha
1,"C=Cc1c(C(=O)OC)nc(-c2ccc(Br)cc2)c(F)c1N [Compound 57, methyl 4-amino-6-(4-bromophenyl)-5-fluoro-3-vinylpicolinate]",0 to 29%

# System: Key Grass and Sedge Weeds as well as Grass Crops
# Assay: Post-emergent Test II herbicidal activity (Table 6)
# Format: in vivo
# Conditions: Triticum aestivum, post-emergence, 336 h, TRZSS (wheat), application rate 70 g ai/ha, read-out: Visual Growth Reduction (%) 14 Days After Application, TRZSS
# In short: as §1
row,Structure (SMILES),pest or weed control at 70 g/ha
1,"C=Cc1c(C(=O)OC)nc(-c2ccc(Br)cc2)c(F)c1N [Compound 57, methyl 4-amino-6-(4-bromophenyl)-5-fluoro-3-vinylpicolinate]",0 to 29%

# Same assay, conditions: Triticum aestivum, post-emergence, 336 h, TRZSS (wheat), application rate 140 g ai/ha, read-out: Visual Growth Reduction (%) 14 Days After Application, TRZSS
row,Structure (SMILES),pest or weed control at 140 g/ha
1,"C=Cc1c(C(=O)OC)nc(-c2ccc(Br)cc2)c(F)c1N [Compound 57, methyl 4-amino-6-(4-bromophenyl)-5-fluoro-3-vinylpicolinate]",0 to 29%

# Same assay, conditions: post-emergence, 336 h, CYPES: yellow nutsedge (Cyperus esculentus), application rate 70 g ai/ha, read-out: Visual Growth Reduction (%) 14 Days After Application, CYPES
row,Structure (SMILES),pest or weed control at 70 g/ha
1,"C=Cc1c(C(=O)OC)nc(-c2ccc(Br)cc2)c(F)c1N [Compound 57, methyl 4-amino-6-(4-bromophenyl)-5-fluoro-3-vinylpicolinate]",95 to 100%

# Same assay, conditions: post-emergence, 336 h, CYPES: yellow nutsedge (Cyperus esculentus), application rate 140 g ai/ha, read-out: Visual Growth Reduction (%) 14 Days After Application, CYPES
row,Structure (SMILES),pest or weed control at 140 g/ha
1,"C=Cc1c(C(=O)OC)nc(-c2ccc(Br)cc2)c(F)c1N [Compound 57, methyl 4-amino-6-(4-bromophenyl)-5-fluoro-3-vinylpicolinate]",95 to 100%

# Same assay, conditions: post-emergence, 336 h, DIGSA: crabgrass (Digitaria sanguinalis), application rate 70 g ai/ha, read-out: Visual Growth Reduction (%) 14 Days After Application, DIGSA
row,Structure (SMILES),pest or weed control at 70 g/ha
1,"C=Cc1c(C(=O)OC)nc(-c2ccc(Br)cc2)c(F)c1N [Compound 57, methyl 4-amino-6-(4-bromophenyl)-5-fluoro-3-vinylpicolinate]",0 to 29%

# Same assay, conditions: post-emergence, 336 h, DIGSA: crabgrass (Digitaria sanguinalis), application rate 140 g ai/ha, read-out: Visual Growth Reduction (%) 14 Days After Application, DIGSA
row,Structure (SMILES),pest or weed control at 140 g/ha
1,"C=Cc1c(C(=O)OC)nc(-c2ccc(Br)cc2)c(F)c1N [Compound 57, methyl 4-amino-6-(4-bromophenyl)-5-fluoro-3-vinylpicolinate]",0 to 29%

# Same assay, conditions: post-emergence, 336 h, ECHCG: barnyardgrass (Echinochloa crus-galli), application rate 70 g ai/ha, read-out: Visual Growth Reduction (%) 14 Days After Application, ECHCG
row,Structure (SMILES),pest or weed control at 70 g/ha
1,"C=Cc1c(C(=O)OC)nc(-c2ccc(Br)cc2)c(F)c1N [Compound 57, methyl 4-amino-6-(4-bromophenyl)-5-fluoro-3-vinylpicolinate]",0 to 29%

# Same assay, conditions: post-emergence, 336 h, ECHCG: barnyardgrass (Echinochloa crus-galli), application rate 140 g ai/ha, read-out: Visual Growth Reduction (%) 14 Days After Application, ECHCG
row,Structure (SMILES),pest or weed control at 140 g/ha
1,"C=Cc1c(C(=O)OC)nc(-c2ccc(Br)cc2)c(F)c1N [Compound 57, methyl 4-amino-6-(4-bromophenyl)-5-fluoro-3-vinylpicolinate]",0 to 29%

# Same assay, conditions: post-emergence, 336 h, ORYSA: rice (Oryza sativa), application rate 70 g ai/ha, read-out: Visual Growth Reduction (%) 14 Days After Application, ORYSA
row,Structure (SMILES),pest or weed control at 70 g/ha
1,"C=Cc1c(C(=O)OC)nc(-c2ccc(Br)cc2)c(F)c1N [Compound 57, methyl 4-amino-6-(4-bromophenyl)-5-fluoro-3-vinylpicolinate]",0 to 29%

# Same assay, conditions: post-emergence, 336 h, ORYSA: rice (Oryza sativa), application rate 140 g ai/ha, read-out: Visual Growth Reduction (%) 14 Days After Application, ORYSA
row,Structure (SMILES),pest or weed control at 140 g/ha
1,"C=Cc1c(C(=O)OC)nc(-c2ccc(Br)cc2)c(F)c1N [Compound 57, methyl 4-amino-6-(4-bromophenyl)-5-fluoro-3-vinylpicolinate]",0 to 29%

# Same assay, conditions: post-emergence, 336 h, SETFA: giant foxtail (Setaria faberi), application rate 70 g ai/ha, read-out: Visual Growth Reduction (%) 14 Days After Application, SETFA
row,Structure (SMILES),pest or weed control at 70 g/ha
1,"C=Cc1c(C(=O)OC)nc(-c2ccc(Br)cc2)c(F)c1N [Compound 57, methyl 4-amino-6-(4-bromophenyl)-5-fluoro-3-vinylpicolinate]",0 to 29%

# Same assay, conditions: post-emergence, 336 h, SETFA: giant foxtail (Setaria faberi), application rate 140 g ai/ha, read-out: Visual Growth Reduction (%) 14 Days After Application, SETFA
row,Structure (SMILES),pest or weed control at 140 g/ha
1,"C=Cc1c(C(=O)OC)nc(-c2ccc(Br)cc2)c(F)c1N [Compound 57, methyl 4-amino-6-(4-bromophenyl)-5-fluoro-3-vinylpicolinate]",0 to 29%

# Same assay, conditions: post-emergence, 336 h, SORVU: grain sorghum (Sorghum vulgare), application rate 70 g ai/ha, read-out: Visual Growth Reduction (%) 14 Days After Application, SORVU
row,Structure (SMILES),pest or weed control at 70 g/ha
1,"C=Cc1c(C(=O)OC)nc(-c2ccc(Br)cc2)c(F)c1N [Compound 57, methyl 4-amino-6-(4-bromophenyl)-5-fluoro-3-vinylpicolinate]",75 to 84%

# Same assay, conditions: post-emergence, 336 h, SORVU: grain sorghum (Sorghum vulgare), application rate 140 g ai/ha, read-out: Visual Growth Reduction (%) 14 Days After Application, SORVU
row,Structure (SMILES),pest or weed control at 140 g/ha
1,"C=Cc1c(C(=O)OC)nc(-c2ccc(Br)cc2)c(F)c1N [Compound 57, methyl 4-amino-6-(4-bromophenyl)-5-fluoro-3-vinylpicolinate]",95 to 100%

# Same assay, conditions: post-emergence, 336 h, ZEAMX: maize, corn (Zea mays), application rate 70 g ai/ha, read-out: Visual Growth Reduction (%) 14 Days After Application, ZEAMX
row,Structure (SMILES),pest or weed control at 70 g/ha
1,"C=Cc1c(C(=O)OC)nc(-c2ccc(Br)cc2)c(F)c1N [Compound 57, methyl 4-amino-6-(4-bromophenyl)-5-fluoro-3-vinylpicolinate]",0 to 29%

# Same assay, conditions: post-emergence, 336 h, ZEAMX: maize, corn (Zea mays), application rate 140 g ai/ha, read-out: Visual Growth Reduction (%) 14 Days After Application, ZEAMX
row,Structure (SMILES),pest or weed control at 140 g/ha
1,"C=Cc1c(C(=O)OC)nc(-c2ccc(Br)cc2)c(F)c1N [Compound 57, methyl 4-amino-6-(4-bromophenyl)-5-fluoro-3-vinylpicolinate]",0 to 29%

# System: not given
# Assay: not given
# Conditions: not given
row,melting point,Structure (SMILES)
1,93 to 94 °C,"C=Cc1c(C(=O)OC)nc(-c2ccc(Br)cc2)c(F)c1N [Compound 57, methyl 4-amino-6-(4-bromophenyl)-5-fluoro-3-vinylpicolinate]"
